Data: patent US12152016B2, “Aryl hydrocarbon receptor modulators and uses thereof” (Beth Israel Deaconess Medical Center, Inc., priority 2018, dated 2024)

What was measured:
[1] = tested on: AHR-dependent transcription of the CYP1A1 gene; assay: CYP1A1 induction in mouse macrophages; format: cell-based
Experimental: (§1) Mouse macrophages were also used to test AHR-dependent transcription of the CYP1A1 gene in vivo. Finally, the activity of exemplary compounds of Formula (I) described herein was tested in the human […] cell line U937. The U937 cell line is derived from a patient with diffuse histiocytic lymphoma. Tables 2-4 summarize structure-activity relationship data collected for exemplary, non-limiting compounds of Formula (I) described herein.

[2] = molecular target: T1, aryl hydrocarbon receptor (AHR) (Homo sapiens, UniProt P35869); assay: XRE-driven luciferase reporter assay, human HepG2; details: for XRE luciferase Emax (fold): fold over vehicle; for fold less active / fold decrease in activity: AHR activity relative to compound #10; for XRE luciferase Emax (footnote c): Emax defined as fold increase at highest concentration tested (10 μM)
T1 sequence (P35869 11-848): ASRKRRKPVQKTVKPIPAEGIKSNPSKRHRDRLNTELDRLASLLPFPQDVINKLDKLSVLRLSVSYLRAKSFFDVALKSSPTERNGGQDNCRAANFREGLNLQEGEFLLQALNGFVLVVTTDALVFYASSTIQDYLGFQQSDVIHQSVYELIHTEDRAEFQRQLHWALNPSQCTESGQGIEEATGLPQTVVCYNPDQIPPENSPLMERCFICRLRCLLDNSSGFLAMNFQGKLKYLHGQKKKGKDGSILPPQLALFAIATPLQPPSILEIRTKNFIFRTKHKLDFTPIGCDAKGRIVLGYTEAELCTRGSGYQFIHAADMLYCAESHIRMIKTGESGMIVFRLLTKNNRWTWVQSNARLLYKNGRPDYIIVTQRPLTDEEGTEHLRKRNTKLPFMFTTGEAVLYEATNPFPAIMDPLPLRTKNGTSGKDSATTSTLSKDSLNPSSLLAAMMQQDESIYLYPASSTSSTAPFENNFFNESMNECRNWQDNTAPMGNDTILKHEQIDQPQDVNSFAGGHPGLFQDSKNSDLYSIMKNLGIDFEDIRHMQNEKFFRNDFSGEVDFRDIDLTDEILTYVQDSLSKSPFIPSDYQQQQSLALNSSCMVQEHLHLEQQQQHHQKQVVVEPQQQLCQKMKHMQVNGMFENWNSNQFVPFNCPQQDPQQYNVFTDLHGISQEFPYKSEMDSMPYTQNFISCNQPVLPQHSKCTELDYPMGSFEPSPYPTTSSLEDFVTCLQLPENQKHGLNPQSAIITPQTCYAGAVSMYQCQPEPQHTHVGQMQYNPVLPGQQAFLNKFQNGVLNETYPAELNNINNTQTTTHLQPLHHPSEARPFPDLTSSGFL

[3] = tested on: AHR-dependent transcription of the CYP1A1 gene; assay: CYP1A1 induction in human U937 cells; format: cell-based; details: Human U937, 1 μM
Experimental: as §1

[4] = XRE luciferase EC50, Human HepG2, least square curve fitting, >10,000 = does not reach 50% of Emax of ITE at 10 μM (highest concentration tested)
[5] = XRE luciferase EC50 (footnote a), Human HepG2, EC50 defined as concentration induced 50% of Emax of ITE

Compound | CYP1A1 induction (% of ITE ± SEM) ([1]; 50 nM) | CYP1A1 induction (% of ITE ± SEM) ([1]; 5 μM) | XRE luciferase Emax (fold) ([2]; Human HepG2) | EC50 [2, 4] [nM] | further results
O=C(OC1CCCCC1)c1cccc(C(=O)c2c[nH]c3ccccc23)n1 [Compound 2] | 19 ± 4 % of ITE | 95 ± 7 % of ITE | 55 | 12000 | 
CCOC(=O)c1cccc(C(=O)c2c[nH]c3ccccc23)n1 [Compound 147, ethyl 6-(1H-indole-3-carbonyl)pyridine-2-carboxylate] | 8 ± 2 % of ITE | 52 ± 28 % of ITE | 40 | 840 | fold less active / fold decrease in activity [2]: > 250 fold
COc1cnc(C(=O)c2c[nH]c3ccccc23)cn1 [Compound 30] |  | 41 ± 3 % of ITE |  |  | XRE luciferase Emax (footnote c) ([2]; Human HepG2): (30)^c fold; EC50 [2, 5]: 8.1 nM
COc1ccccc1C(=O)c1c[nH]c2ccccc12 [Compound 27] | 6 ± 1 % of ITE |  |  |  | 
COC(=O)c1cccc(C(=O)c2c[nH]c3ccc(Br)cc23)n1 [Compound 20] | 138 ± 8 % of ITE | 144 ± 20 % of ITE | 55 | 6.2 | 
COC(=O)c1cccc(C(=O)c2c[nH]c3ncccc23)n1 [Compound 18] | 11 ± 4 % of ITE |  | 42 | 18 | 
COC(=O)c1cccc(C(=O)c2cn(C)c3ccccc23)n1 [Compound 13] | 29 ± 10 % of ITE | 50 ± 20 % of ITE | 55 | 190 | 
O=C(c1ccccn1)c1c[nH]c2ccccc12 [Compound 124, 1H-indol-3-yl(2-pyridyl)methanone] |  | 15 ± 6 % of ITE | 20 | > 10000 | 
COC(=O)c1cccc(C(=O)c2c[nH]c3c2ccc2ccccc23)n1 [Compound 22] | 57 ± 5 % of ITE | 105 ± 3 % of ITE |  |  | XRE luciferase Emax (footnote c) ([2]; Human HepG2): (121)^c fold; EC50 [2, 5]: 14 nM
O=C(O)c1cccc(C(=O)c2c[nH]c3ccccc23)n1 [Compound 3] | 27 ± 17 % of ITE | 97 ± 16 % of ITE | 47 | 640 | 
COc1cc(C(=O)c2c[nH]c3ccccc23)ccn1 [Compound 29] |  | 44 ± 2 % of ITE | 65 | 2600 | 
COc1ccc(C(=O)c2c[nH]c3ccccc23)cc1 [Compound 28] | 19 ± 8 % of ITE |  |  |  | 
CC(C)OC(=O)c1cccc(C(=O)c2c[nH]c3ccccc23)n1 [Compound 1] | 22 ± 11 % of ITE | 128 ± 11 % of ITE | 37 | 370 | 
O=C(O)c1cccc(C(=O)c2c[nH]c3ccccc23)n1 [Compound 145, 6-(1H-indole-3-carbonyl)pyridine-2-carboxylic acid] |  |  |  |  | IC50 [2]: 640 nM
COC(=O)c1cccc(C(=O)c2c[nH]c3ccccc23)c1 [Compound 202, methyl 3-(1H-indole-3-carbonyl)benzoate] |  |  |  |  | CYP1A1 induction (% of ITE ± SEM) [3]: 3 ± 1 % of ITE
O=C(c1cccc(N2CCOCC2)n1)c1c[nH]c2ccccc12 [Compound 110, 1H-indol-3-yl-(6-morpholino-2-pyridyl)methanone] |  | 46 ± 4 % of ITE | 59 | 62 | fold less active / fold decrease in activity [2]: ~20 fold

Compound | CYP1A1 induction (% of ITE ± SEM) ([1]; 50 nM) | CYP1A1 induction (% of ITE ± SEM) ([1]; 5 μM) | XRE luciferase Emax (fold) ([2]; Human HepG2) | EC50 [2, 4] [nM] | further results
COC(=O)c1cccc(C(=O)c2c[nH]c3cccc(Cl)c23)n1 [Compound 14] | 141 ± 83 % of ITE |  |  | > 10000 | XRE luciferase Emax (footnote c) ([2]; Human HepG2): (19)^c fold
COC(=O)c1cccc(C(=O)c2c[nH]c3ccc(Cl)cc23)n1 [Compound 15] | 150 ± 36 % of ITE | 89 ± 44 % of ITE | 62 | 7.6 | 
COC(=O)c1cccc(C(=O)c2c[nH]c3ccc(OC)cc23)n1 [Compound 19] | 121 ± 12 % of ITE | 120 ± 13 % of ITE | 131 | 1800 | 
COC(=O)c1cccc(C(=O)c2c[nH]c3c(Cl)cccc23)n1 [Compound 17] | 49 ± 19 % of ITE |  | 68 | 1.3 | 
O=C(c1cccc(Cl)n1)c1c[nH]c2ccccc12 [Compound 6] | 86 ± 47 % of ITE |  |  |  | XRE luciferase Emax (footnote c) ([2]; Human HepG2): (109)^c fold; EC50 [2, 5]: 29 nM
CN(C)C(=O)c1cccc(C(=O)c2c[nH]c3ccccc23)n1 [Compound 4] |  | 2.5 ± 1.4 % of ITE | 23 | > 10000 | 
COC(=O)c1ccc(C(=O)c2c[nH]c3ccccc23)nc1 [Compound 11, methyl 6-(1H-indole-3-carbonyl)pyridine-3-carboxylate] | 2 ± 1 % of ITE | 26 ± 10 % of ITE |  | > 10000 | XRE luciferase Emax (footnote c) ([2]; Human HepG2): (2.3)^c fold
CC(=O)Oc1cccc(C(=O)c2c[nH]c3ccccc23)c1 [Compound 12] | 5 ± 3 % of ITE |  |  |  | 
COC(=O)c1ccccc1C(=O)c1c[nH]c2ccccc12 [Compound 26] | 10 ± 7 % of ITE |  |  |  | 
COC(=O)c1cccc(C(=O)c2c[nH]c3ccccc23)c1 [Compound 8] | 3 ± 1 % of ITE |  |  | > 10000 | XRE luciferase Emax (footnote c) ([2]; Human HepG2): (2.1)^c fold
COC(=O)c1cccc(C(=O)c2c[nH]c3cc(Cl)ccc23)n1 [Compound 16] | 169 ± 59 % of ITE | 122 ± 48 % of ITE |  |  | XRE luciferase Emax (footnote c) ([2]; Human HepG2): (141)^c fold; EC50 [2, 5]: 1.6 nM
COC(=O)c1ccc(C(=O)c2c[nH]c3ccccc23)s1 [Compound 24] | 99 ± 18 % of ITE | 59 ± 22 % of ITE |  |  | CYP1A1 induction (% of ITE ± SEM) ([1]; 5 nM): 60 ± 13 % of ITE; CYP1A1 induction (% of ITE ± SEM) [3]: 244 ± 28 % of ITE
COC(=O)c1ccc(C(=O)c2c[nH]c3ccccc23)cn1 [Compound 23] |  | 65 ± 9 % of ITE | 74 | 4700 | 
O=C(c1ccccc1)c1c[nH]c2ccccc12 [Compound 7] |  | 0.6 ± 0.2 % of ITE |  |  | 
COC(=O)c1cccc(C(=O)c2c[nH]c3c4c(ccc23)CCC4)n1 [Compound 21] | 129 ± 8 % of ITE | 118 ± 5 % of ITE | 53 | 27 | 
COC(=O)c1ccc(C(=O)c2c[nH]c3ccccc23)cc1 [Compound 25] | 20 ± 16 % of ITE |  |  |  | 
